Columns and labels:
Assay in all cases: KINOMEscan competition binding
Details in all cases: compound 10.0 µM
ACVRL1 (human) = ACVRL1 (human) (UniProt P37023)
AKT3 (human) = AKT3 (human) (UniProt Q9Y243)
CDC42BPA (human) = CDC42BPA (human) (UniProt Q5VT25)
CDK3 (human) = CDK3 (human) (UniProt Q00526)
CHEK2 (human) = CHEK2 (human) (UniProt O96017)
CSNK1E (human) = CSNK1E (human) (UniProt P49674)
CaMK1 (human) = CaMK1 (human) (UniProt Q14012)
DAPK2 (human) = DAPK2 (human) (UniProt Q9UIK4)
DAPK3 (human) = DAPK3 (human) (UniProt O43293)
DYRK1B (human) = DYRK1B (human) (UniProt Q9Y463)
EPHA7 (human) = EPHA7 (human) (UniProt Q15375)
FYN (human) = FYN (human) (UniProt P06241)
GAK (human) = GAK (human) (UniProt O14976)
[1] = target: JAK2 JH1 catalytic (human) (UniProt O60674)
LATS2 (human) = LATS2 (human) (UniProt Q9NRM7)
MAP3K10 (human) = MAP3K10 (human) (UniProt Q02779)
MAPK3 (human) = MAPK3 (human) (UniProt P27361)
MAPKAPK5 (human) = MAPKAPK5 (human) (UniProt Q8IW41)
MARK1 (human) = MARK1 (human) (UniProt Q9P0L2)
MELK (human) = MELK (human) (UniProt Q14680)
MKNK1 (human) = MKNK1 (human) (UniProt Q9BUB5)
MYLK (human) = MYLK (human) (UniProt Q15746)
MYO3B (human) = MYO3B (human) (UniProt Q8WXR4)
NUAK1 (human) = NUAK1 (human) (UniProt O60285)
PAK6 (human) = PAK6 (human) (UniProt Q9NQU5)
PHKG1 (human) = PHKG1 (human) (UniProt Q16816)
PIM1 (human) = PIM1 (human) (UniProt P11309)
PRKACB (human) = PRKACB (human) (UniProt P22694)
PRKCE (human) = PRKCE (human) (UniProt Q02156)
PRKX (human) = PRKX (human) (UniProt P51817)
RIOK1 (human) = RIOK1 (human) (UniProt Q9BRS2)
SRC (human) = SRC (human) (UniProt P12931)
SRPK3 (human) = SRPK3 (human) (UniProt Q9UPE1)
STK24 (human) = STK24 (human) (UniProt Q9Y6E0)
STK25 (human) = STK25 (human) (UniProt O00506)
TAOK3 (human) = TAOK3 (human) (UniProt Q9H2K8)
TNK1 (human) = TNK1 (human) (UniProt Q13470)
TNNI3K (human) = TNNI3K (human) (UniProt Q59H18)
[2] = target: TYK2 JH1 catalytic (human) (UniProt P29597)
ULK1 (human) = ULK1 (human) (UniProt O75385)

Sequence of CSNK1E (human) (P49674 whole entry, looked up): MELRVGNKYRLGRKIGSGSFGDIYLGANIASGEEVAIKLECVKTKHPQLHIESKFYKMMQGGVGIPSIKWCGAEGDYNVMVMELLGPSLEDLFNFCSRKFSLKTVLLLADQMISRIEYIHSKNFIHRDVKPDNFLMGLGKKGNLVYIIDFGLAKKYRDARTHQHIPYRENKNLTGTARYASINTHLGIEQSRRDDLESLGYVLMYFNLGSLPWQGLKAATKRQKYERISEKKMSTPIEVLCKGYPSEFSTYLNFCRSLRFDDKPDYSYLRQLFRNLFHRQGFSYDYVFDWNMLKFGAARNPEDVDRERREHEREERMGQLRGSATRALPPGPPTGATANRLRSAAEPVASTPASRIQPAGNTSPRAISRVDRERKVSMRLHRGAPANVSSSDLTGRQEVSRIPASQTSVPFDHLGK
Sequence of GAK (human) (O14976 whole entry, looked up): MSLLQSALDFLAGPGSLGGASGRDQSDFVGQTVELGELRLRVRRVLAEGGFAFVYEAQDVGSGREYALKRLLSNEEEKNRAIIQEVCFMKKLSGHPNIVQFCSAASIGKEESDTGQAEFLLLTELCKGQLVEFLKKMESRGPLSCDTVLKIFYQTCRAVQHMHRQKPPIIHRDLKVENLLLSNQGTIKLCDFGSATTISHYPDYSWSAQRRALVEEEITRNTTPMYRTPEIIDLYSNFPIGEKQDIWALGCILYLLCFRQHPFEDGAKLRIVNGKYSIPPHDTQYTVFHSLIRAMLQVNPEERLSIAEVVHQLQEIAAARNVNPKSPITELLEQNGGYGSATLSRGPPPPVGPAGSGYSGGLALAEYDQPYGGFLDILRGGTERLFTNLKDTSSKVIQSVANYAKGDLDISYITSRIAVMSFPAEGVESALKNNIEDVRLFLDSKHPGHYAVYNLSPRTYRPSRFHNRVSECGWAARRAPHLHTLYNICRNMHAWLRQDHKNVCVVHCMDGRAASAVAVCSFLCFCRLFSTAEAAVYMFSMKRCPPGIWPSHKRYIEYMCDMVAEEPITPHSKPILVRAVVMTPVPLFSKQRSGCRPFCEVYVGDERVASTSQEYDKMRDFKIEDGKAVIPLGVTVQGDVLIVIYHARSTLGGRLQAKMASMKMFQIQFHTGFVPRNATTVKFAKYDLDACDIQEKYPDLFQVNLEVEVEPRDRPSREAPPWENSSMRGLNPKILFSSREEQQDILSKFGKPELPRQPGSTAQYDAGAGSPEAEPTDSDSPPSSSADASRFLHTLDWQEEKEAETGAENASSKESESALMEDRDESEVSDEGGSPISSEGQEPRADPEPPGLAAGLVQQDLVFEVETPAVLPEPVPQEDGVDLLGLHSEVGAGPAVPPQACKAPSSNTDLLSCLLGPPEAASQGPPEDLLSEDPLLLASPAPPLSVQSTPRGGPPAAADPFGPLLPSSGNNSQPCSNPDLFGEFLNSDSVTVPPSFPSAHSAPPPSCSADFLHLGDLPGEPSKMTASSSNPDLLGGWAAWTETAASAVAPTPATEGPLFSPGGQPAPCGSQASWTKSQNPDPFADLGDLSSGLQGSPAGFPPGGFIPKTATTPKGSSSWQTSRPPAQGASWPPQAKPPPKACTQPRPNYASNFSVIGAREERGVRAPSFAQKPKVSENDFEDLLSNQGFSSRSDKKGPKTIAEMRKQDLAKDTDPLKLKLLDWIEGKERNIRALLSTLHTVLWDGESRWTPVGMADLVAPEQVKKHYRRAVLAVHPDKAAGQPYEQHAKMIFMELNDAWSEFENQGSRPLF
Sequence of DAPK2 (human) (Q9UIK4 whole entry, looked up): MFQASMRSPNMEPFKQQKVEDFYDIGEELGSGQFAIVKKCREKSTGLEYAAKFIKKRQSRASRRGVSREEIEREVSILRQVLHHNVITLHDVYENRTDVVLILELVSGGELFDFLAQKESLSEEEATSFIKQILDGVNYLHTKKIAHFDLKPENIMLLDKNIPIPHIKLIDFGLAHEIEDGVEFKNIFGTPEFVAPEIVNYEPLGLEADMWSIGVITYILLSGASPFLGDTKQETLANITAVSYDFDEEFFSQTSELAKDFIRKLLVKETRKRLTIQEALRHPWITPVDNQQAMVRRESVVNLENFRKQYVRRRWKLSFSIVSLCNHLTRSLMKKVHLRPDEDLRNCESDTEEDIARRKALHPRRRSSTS
Sequence of FYN (human) (P06241 whole entry, looked up): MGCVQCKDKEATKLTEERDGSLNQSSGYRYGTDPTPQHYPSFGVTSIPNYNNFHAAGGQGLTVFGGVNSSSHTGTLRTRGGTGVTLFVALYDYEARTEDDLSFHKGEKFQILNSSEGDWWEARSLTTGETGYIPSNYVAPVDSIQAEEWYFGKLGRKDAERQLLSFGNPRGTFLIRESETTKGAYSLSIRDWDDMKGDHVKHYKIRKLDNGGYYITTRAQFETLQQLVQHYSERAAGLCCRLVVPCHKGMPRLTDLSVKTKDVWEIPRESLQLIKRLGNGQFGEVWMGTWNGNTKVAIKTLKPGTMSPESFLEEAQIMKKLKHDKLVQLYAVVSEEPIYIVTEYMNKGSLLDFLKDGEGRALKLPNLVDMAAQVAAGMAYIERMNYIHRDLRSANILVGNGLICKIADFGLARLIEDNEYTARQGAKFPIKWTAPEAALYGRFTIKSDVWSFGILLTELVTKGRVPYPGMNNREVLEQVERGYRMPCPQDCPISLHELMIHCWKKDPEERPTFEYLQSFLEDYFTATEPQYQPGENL
Sequence of PIM1 (human) (P11309 whole entry, looked up): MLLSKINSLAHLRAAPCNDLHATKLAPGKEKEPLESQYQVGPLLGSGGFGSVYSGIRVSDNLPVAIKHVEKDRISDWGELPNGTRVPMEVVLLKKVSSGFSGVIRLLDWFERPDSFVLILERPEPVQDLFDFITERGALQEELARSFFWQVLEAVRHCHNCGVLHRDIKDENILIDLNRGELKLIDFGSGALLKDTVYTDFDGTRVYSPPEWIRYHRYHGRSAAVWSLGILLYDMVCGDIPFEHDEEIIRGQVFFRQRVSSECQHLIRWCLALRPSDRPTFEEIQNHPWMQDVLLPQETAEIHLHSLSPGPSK
Sequence of PRKCE (human) (Q02156 whole entry, looked up): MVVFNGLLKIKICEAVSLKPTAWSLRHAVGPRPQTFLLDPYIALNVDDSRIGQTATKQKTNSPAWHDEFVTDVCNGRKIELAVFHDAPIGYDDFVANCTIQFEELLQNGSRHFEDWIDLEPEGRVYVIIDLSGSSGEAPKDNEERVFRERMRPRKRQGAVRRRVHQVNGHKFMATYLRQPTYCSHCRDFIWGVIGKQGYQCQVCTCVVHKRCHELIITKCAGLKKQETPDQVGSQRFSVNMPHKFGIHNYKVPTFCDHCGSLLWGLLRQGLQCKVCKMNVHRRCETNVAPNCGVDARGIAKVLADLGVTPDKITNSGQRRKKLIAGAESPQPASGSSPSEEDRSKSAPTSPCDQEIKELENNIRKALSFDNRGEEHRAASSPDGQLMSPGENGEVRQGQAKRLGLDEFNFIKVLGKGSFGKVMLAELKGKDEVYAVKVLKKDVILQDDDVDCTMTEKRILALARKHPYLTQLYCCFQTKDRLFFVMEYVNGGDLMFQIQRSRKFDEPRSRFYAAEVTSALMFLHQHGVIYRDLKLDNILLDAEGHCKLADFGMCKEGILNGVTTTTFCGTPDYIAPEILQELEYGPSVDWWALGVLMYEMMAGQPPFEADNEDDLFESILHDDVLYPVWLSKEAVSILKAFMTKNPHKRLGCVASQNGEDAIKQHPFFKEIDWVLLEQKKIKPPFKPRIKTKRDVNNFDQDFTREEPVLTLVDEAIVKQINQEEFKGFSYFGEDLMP
Sequence of JAK2 JH1 catalytic (human) (O60674 whole entry, looked up): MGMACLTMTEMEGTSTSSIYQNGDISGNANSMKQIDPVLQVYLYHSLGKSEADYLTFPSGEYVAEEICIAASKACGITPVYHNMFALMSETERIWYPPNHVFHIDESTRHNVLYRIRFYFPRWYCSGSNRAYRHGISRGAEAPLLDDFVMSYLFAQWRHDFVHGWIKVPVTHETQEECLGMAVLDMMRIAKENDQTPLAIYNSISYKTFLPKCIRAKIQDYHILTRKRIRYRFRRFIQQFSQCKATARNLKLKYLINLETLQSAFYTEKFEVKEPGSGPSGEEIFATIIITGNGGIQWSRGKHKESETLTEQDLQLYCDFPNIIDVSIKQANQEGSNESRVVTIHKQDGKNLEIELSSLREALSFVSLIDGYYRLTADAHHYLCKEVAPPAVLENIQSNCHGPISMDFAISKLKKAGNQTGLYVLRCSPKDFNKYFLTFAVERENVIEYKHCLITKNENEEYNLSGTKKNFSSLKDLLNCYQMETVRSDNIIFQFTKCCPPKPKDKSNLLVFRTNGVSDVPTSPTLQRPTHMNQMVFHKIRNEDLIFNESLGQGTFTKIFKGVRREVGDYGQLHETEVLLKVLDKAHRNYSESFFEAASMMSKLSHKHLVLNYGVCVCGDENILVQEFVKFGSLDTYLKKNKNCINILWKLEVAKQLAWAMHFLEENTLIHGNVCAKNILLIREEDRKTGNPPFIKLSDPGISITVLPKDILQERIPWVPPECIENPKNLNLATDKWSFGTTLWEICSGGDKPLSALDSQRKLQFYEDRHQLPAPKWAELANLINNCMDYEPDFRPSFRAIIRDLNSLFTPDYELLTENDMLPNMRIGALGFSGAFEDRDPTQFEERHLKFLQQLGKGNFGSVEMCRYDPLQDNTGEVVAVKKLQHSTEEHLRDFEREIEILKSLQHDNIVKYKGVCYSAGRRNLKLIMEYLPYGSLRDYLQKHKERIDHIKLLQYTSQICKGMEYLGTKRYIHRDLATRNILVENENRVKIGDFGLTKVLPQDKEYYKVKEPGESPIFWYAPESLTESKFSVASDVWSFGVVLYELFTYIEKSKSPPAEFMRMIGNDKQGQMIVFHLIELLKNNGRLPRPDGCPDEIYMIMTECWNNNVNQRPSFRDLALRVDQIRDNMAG

kinase still bound, per cent of control (ACVRL1 (human)) [%] | kinase still bound, per cent of control (AKT3 (human)) [%] | kinase still bound, per cent of control (CDC42BPA (human)) [%] | kinase still bound, per cent of control (CDK3 (human)) [%] | kinase still bound, per cent of control (CHEK2 (human)) [%] | kinase still bound, per cent of control (CSNK1E (human)) [%] | kinase still bound, per cent of control (CaMK1 (human)) [%] | kinase still bound, per cent of control (DAPK2 (human)) [%] | kinase still bound, per cent of control (DAPK3 (human)) [%] | kinase still bound, per cent of control (DYRK1B (human)) [%] | kinase still bound, per cent of control (EPHA7 (human)) [%] | kinase still bound, per cent of control (FYN (human)) [%] | kinase still bound, per cent of control (GAK (human)) [%] | kinase still bound, per cent of control [1] [%] | kinase still bound, per cent of control (LATS2 (human)) [%] | kinase still bound, per cent of control (MAP3K10 (human)) [%] | kinase still bound, per cent of control (MAPK3 (human)) [%] | kinase still bound, per cent of control (MAPKAPK5 (human)) [%] | kinase still bound, per cent of control (MARK1 (human)) [%] | kinase still bound, per cent of control (MELK (human)) [%] | Compound | also measured
100 | 100 | 100 | 100 | 8.8 | 100 | 100 | 28 | 7.4 | 17 | 100 | 100 | 0.45 | 100 | 100 | 100 | 100 | 100 | 11 | 14 | C=CC(=O)Nc1cccc(Oc2nc(Nc3ccc(N4CCN(C)CC4)cc3OC)ncc2Cl)c1 | kinase still bound, per cent of control (MKNK1 (human)): 100%; kinase still bound, per cent of control (MYLK (human)): 100%; kinase still bound, per cent of control (MYO3B (human)): 100%; kinase still bound, per cent of control (NUAK1 (human)): 0.65%; kinase still bound, per cent of control (PAK6 (human)): 100%; kinase still bound, per cent of control (PHKG1 (human)): 7.7%; kinase still bound, per cent of control (PIM1 (human)): 100%; kinase still bound, per cent of control (PRKACB (human)): 100%; kinase still bound, per cent of control (PRKCE (human)): 100%; kinase still bound, per cent of control (PRKX (human)): 100%; kinase still bound, per cent of control (RIOK1 (human)): 17%; kinase still bound, per cent of control (SRC (human)): 100%; kinase still bound, per cent of control (SRPK3 (human)): 8.4%; kinase still bound, per cent of control (STK24 (human)): 100%; kinase still bound, per cent of control (STK25 (human)): 100%; kinase still bound, per cent of control (TAOK3 (human)): 100%; kinase still bound, per cent of control (TNK1 (human)): 1.8%; kinase still bound, per cent of control (TNNI3K (human)): 100%; kinase still bound, per cent of control [2]: 100%; kinase still bound, per cent of control (ULK1 (human)): 1.6%
100 | 100 | 100 | 100 | 100 | 100 | 100 | 100 | 17 | 100 | 100 | 100 | 3.8 | 100 | 100 | 100 | 100 | 100 | 100 | 100 | COc1cc(C(=O)NC2CCN(C)CC2)ccc1Nc1ncc2c(n1)N(C1CCCC1)C(C)CC(=O)N2C (stereo not given) | kinase still bound, per cent of control (MKNK1 (human)): 100%; kinase still bound, per cent of control (MYLK (human)): 2.8%; kinase still bound, per cent of control (MYO3B (human)): 100%; kinase still bound, per cent of control (NUAK1 (human)): 100%; kinase still bound, per cent of control (PAK6 (human)): 100%; kinase still bound, per cent of control (PHKG1 (human)): 100%; kinase still bound, per cent of control (PIM1 (human)): 100%; kinase still bound, per cent of control (PRKACB (human)): 100%; kinase still bound, per cent of control (PRKCE (human)): 100%; kinase still bound, per cent of control (PRKX (human)): 100%; kinase still bound, per cent of control (RIOK1 (human)): 100%; kinase still bound, per cent of control (SRC (human)): 100%; kinase still bound, per cent of control (SRPK3 (human)): 100%; kinase still bound, per cent of control (STK24 (human)): 100%; kinase still bound, per cent of control (STK25 (human)): 100%; kinase still bound, per cent of control (TAOK3 (human)): 100%; kinase still bound, per cent of control (TNK1 (human)): 100%; kinase still bound, per cent of control (TNNI3K (human)): 100%; kinase still bound, per cent of control [2]: 100%; kinase still bound, per cent of control (ULK1 (human)): 100%

Compound | kinase still bound, per cent of control (ACVRL1 (human)) [%] | kinase still bound, per cent of control (AKT3 (human)) [%] | kinase still bound, per cent of control (CDC42BPA (human)) [%] | kinase still bound, per cent of control (CDK3 (human)) [%] | kinase still bound, per cent of control (CHEK2 (human)) [%] | kinase still bound, per cent of control (CSNK1E (human)) [%] | kinase still bound, per cent of control (CaMK1 (human)) [%] | kinase still bound, per cent of control (DAPK2 (human)) [%] | kinase still bound, per cent of control (DAPK3 (human)) [%] | kinase still bound, per cent of control (DYRK1B (human)) [%] | kinase still bound, per cent of control (EPHA7 (human)) [%] | kinase still bound, per cent of control (FYN (human)) [%] | kinase still bound, per cent of control (GAK (human)) [%] | kinase still bound, per cent of control [1] [%] | kinase still bound, per cent of control (LATS2 (human)) [%] | kinase still bound, per cent of control (MAP3K10 (human)) [%] | kinase still bound, per cent of control (MAPK3 (human)) [%] | kinase still bound, per cent of control (MAPKAPK5 (human)) [%] | kinase still bound, per cent of control (MARK1 (human)) [%] | kinase still bound, per cent of control (MELK (human)) [%] | also measured
CN(C)C/C=C/C(=O)Nc1cccc(Nc2ncc3c(n2)N(C)c2ccccc2C(=O)N3C)c1 | 100 | 100 | 100 | 100 | 94 | 75 | 49 | 69 | 45 | 100 | 100 | 6.7 | 13 | 0.75 | 97 | 89 | 100 | 85 | 4.3 | 43 | kinase still bound, per cent of control (MKNK1 (human)): 38%; kinase still bound, per cent of control (MYLK (human)): 69%; kinase still bound, per cent of control (MYO3B (human)): 100%; kinase still bound, per cent of control (NUAK1 (human)): 0.85%; kinase still bound, per cent of control (PAK6 (human)): 66%; kinase still bound, per cent of control (PHKG1 (human)): 69%; kinase still bound, per cent of control (PIM1 (human)): 66%; kinase still bound, per cent of control (PRKACB (human)): 100%; kinase still bound, per cent of control (PRKCE (human)): 67%; kinase still bound, per cent of control (PRKX (human)): 100%; kinase still bound, per cent of control (RIOK1 (human)): 18%; kinase still bound, per cent of control (SRC (human)): 0.7%; kinase still bound, per cent of control (SRPK3 (human)): 63%; kinase still bound, per cent of control (STK24 (human)): 98%; kinase still bound, per cent of control (STK25 (human)): 66%; kinase still bound, per cent of control (TAOK3 (human)): 0%; kinase still bound, per cent of control (TNK1 (human)): 0.4%; kinase still bound, per cent of control (TNNI3K (human)): 28%; kinase still bound, per cent of control [2]: 5%; kinase still bound, per cent of control (ULK1 (human)): 0.15%

— the kinase profiling compilation of Christmann-Franck et al. (2016)
